Target: T1, ecPGA (Escherichia coli penicillin G acylase) (Escherichia coli, UniProt P06875)
T1 construct: gene pac; mature alpha/beta heterodimer cut from one precursor (signal peptide and spacer removed); ecpga gene in pET-26b, E. coli BL21(DE3), purified after Kutzbach and Rauenbusch; His-tagged version made for melting analysis; WT source plasmid pKA18
Test: HPLC of AHL hydrolysis at […] nm, initial rates
Assay type: biochemical

T1 sequence (P06875 27-235): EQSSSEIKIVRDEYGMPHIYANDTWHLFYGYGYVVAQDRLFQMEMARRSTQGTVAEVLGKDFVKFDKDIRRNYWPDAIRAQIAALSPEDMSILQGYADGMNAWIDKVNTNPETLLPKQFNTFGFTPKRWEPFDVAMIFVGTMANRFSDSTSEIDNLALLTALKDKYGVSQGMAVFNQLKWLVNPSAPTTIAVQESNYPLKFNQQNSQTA
T1 sequence (P06875 290-846): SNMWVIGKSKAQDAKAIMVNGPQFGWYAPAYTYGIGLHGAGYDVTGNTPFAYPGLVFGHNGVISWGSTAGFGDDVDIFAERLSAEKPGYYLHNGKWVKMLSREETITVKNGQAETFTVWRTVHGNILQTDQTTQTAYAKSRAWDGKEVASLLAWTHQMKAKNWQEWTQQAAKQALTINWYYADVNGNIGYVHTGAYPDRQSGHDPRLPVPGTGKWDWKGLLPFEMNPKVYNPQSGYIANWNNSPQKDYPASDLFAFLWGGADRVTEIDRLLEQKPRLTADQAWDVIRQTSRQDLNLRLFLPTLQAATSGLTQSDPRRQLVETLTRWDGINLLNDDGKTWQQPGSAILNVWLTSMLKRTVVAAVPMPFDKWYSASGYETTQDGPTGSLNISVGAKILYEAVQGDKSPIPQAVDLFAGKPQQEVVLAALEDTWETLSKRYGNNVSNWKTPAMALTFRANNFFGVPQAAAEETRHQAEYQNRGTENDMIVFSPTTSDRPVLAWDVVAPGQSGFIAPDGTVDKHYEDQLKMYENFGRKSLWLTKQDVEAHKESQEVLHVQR

CCCCCCCC(=O)N[C@H]1CCOC1=O [C08, N-octanoyl-L-homoserine lactone]
Km: 700 ± 40 µM
